{"source": "patent US20260185163A1", "about": "“MEN1 MUTATIONS AND USES THEREOF” (DANA-FARBER CANCER INSTITUTE, INC., priority 2022, published 2026)", "key": {"[1]": {"test_system": "MEN1 M327I/M327I MV4;11 cells", "assay": "dose-response assay, viable cell counts by flow cytometry", "format": "cell-based", "details": "Homo sapiens, 240 h; MV4;11 MEN1 M327I/M327I, 10 d of treatment", "description": "MV4;11 and OCI-AML3 cell lines were passaged 24 h prior to nucleofection. The guide RNA (150 μmol) (sequence: 5′-[…]-3′) was added to Alt-R S.p. HiFi Cas9 nuclease (Integrated DNA Technologies) (125 μmol) followed by an incubation at room temperature (RT) for 20 min to allow formation of ribonucleoprotein (RNP) complexes. 2×10^5 cells were sedimented at 200 g for 10 min at RT, washed with PBS and resuspended in the SG Cell Line Nucleofector™ Solution (Lonza). […] Cells were replated in fresh medium+drug every 3 days and viable cells were counted using the LSRFortessa™ (BD Biosciences) flow cytometer. Cumulative cell growth was calculated over 28 days. […]\nTo determine Menin-inhibitor responses of MOLM13, MV4;11 or OCI-AML3 cell lines expressing MEN1 mutants, 3×10^3 cells were plated per well in a non-tissue culture treated 96-well plate. […] After 6 days, cells were split 1:7 and counts of viable cells in each well were determined after 10 d of treatment by flow cytometry (LSRFortessa™ with High-throughput sampler (HTS), BD Biosciences). Relative cell counts were calculated as % of DMSO control. The average of each triplicate was calculated and the mean of all replicates was plotted. […]"}, "[2]": {"test_system": "Menin on chromatin in MV4;11 MEN1-WT cells", "assay": "ChIP-Seq of Menin chromatin occupancy", "format": "cell-based, human", "details": "100 nM", "description": "(§1) Cells were sequentially cross-linked using 2 mM DSG disuccinimidyl glutarate for 30 min and a final concentration of 1% formaldehyde for 10 min at room temperature (20-25° C.) and stopped with 125 mM glycine. Cells were lysed in lysis buffer (20 mM Tris-HCl at pH 7.5. 300 mM NaCl, 2 mM EDTA, 0.5% NP40, 1% Triton X-100, 1 mM PMSF, PIC) and incubated on ice for 30 min. The resuspended cells were then dounced in an ice-cold homogenizer. Nuclear pellets were collected and resuspended in shearing buffer (0.1% SDS, 0.5% N-lauroylsarcosine, 1% Triton X-100, 10 mM Tris-HCl at pH 8.1, 100 mM NaCl, 1 mM EDTA. 1 mM PMSF, PIC). Isolated chromatin was fragmented to an average size of 200-600 bp with a bioruptor (Diagenode). Precleared chromatin was immunoprecipitated overnight at 4° C. and immunocomplexes were collected with protein A Dynabeads. […] Reads were aligned to human GRCh38/hg38 genome using STAR 2.7.5. Aligned BAM files were sorted, duplicate reads marked and removed, and deduplicated BAMs indexed using Broad picard tools v2.9.4. Signal intensities around transcription start sites (TSS, +/−3000 bp) were quantified using BEDtools (v. 2.28.0) and data visualizations were produced using IGVtools (TDF signal pileups; v2.3.75) and ngs.plot (pileup heatmaps/torpedo plots). […]"}, "[3]": {"test_system": "Menin on chromatin in MV4;11 MEN1 M327I/M327I cells", "assay": "ChIP-Seq of Menin chromatin occupancy", "format": "cell-based, human", "details": "5 μM, M327I mutant", "description": "as §1"}}, "data": [{"smiles": "CCN(C(=O)c1cc(F)ccc1Oc1cncnc1N1CC2(CCN(C[C@H]3CC[C@H](NS(=O)(=O)CC)CC3)CC2)C1)C(C)C", "note": "[SNDX-5613, revumenib]", "values": [{"measurement": "IC50", "setting": "[1]", "result": "> 1000", "unit": "nM"}, {"measurement": "displacement of Menin from chromatin", "setting": "[2]", "result": "near-complete and global displacement of Menin from chromatin"}, {"measurement": "Menin chromatin occupancy", "setting": "[3]", "result": "partial decrease in Menin chromatin occupancy"}]}]}
